Assay results reported in patent US6339045B1, “N-(unsubstituted or substituted)-4-substituted-6-(unsubstituted or substituted)phenoxy-2-pyridinecarboxamides or thiocarboxamides, processes for producing the same, and herbicides” (Kureha Kagaku Kogyo Kabushiki Kaisha, priority 1995, dated 2002).

Columns and labels:
Test in all cases: Herbicidal effect by foliage and soil treatment
Format in all cases: in vivo
Settings in all cases: 10 g ai/10a, evaluated after 14 days
[1] = test system: common chickweed (Stellaria media)
How it was run: (§1)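 Greenhouse pot test at 19–25 °C: spray of aqueous Tween 20 formulation onto foliage and soil of seedlings at cotyledonal–bifoliate stage, dose per area predetermined. Scoring on a rating scale after 14 days versus untreated.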

[2] = test system: wild chamomile (Matricaria chamomilla)
How it was run: as §1

[3] = test system: velvetleaf (Abutilon theophrasti)
How it was run: as §1

[4] = test system: redroot pigweed (Amaranthus retroflexus)
How it was run: as §1

[5] = test system: black nightshade (Solanum nigrum)
How it was run: as §1

[6] = test system: common blackjack (Bidens pilosa)
How it was run: as §1

[7] = test system: kediock (Sinapis arvensis)
How it was run: as §1

[8] = test system: ivyleafspeedwell (Veronica hederaefolia)
How it was run: as §1

[9] = test system: field bindweed (Convolvulus arvensis)
How it was run: as §1

[10] = test system: sicklepod (Cassia obtusifolia)
How it was run: as §1

[11] = test system: cleavers (Galium aparine)
How it was run: as §1

SMILES: COc1cc(Oc2cccc(C(F)(F)F)c2)nc(C(=O)NN(C)C)c1 [Compound I-109]
- herbicidal activity rating, SM (Stellaria media) [1]: 4 (percentage of weeds killed was not less than 60% and less than 80%)
- herbicidal activity rating, MC (Matricaria chamomilla) [2]: 4 (percentage of weeds killed was not less than 60% and less than 80%)
- herbicidal activity rating, AT (Abutilon theophrasti) [3]: 5 (percentage of weeds killed was not less than 80%)
- herbicidal activity rating, AR (Amaranthus retroflexus) [4]: 5 (percentage of weeds killed was not less than 80%)
- herbicidal activity rating, SN (Solanum nigrum) [5]: 5 (percentage of weeds killed was not less than 80%)
- herbicidal activity rating, BP (Bidens pilosa) [6]: 5 (percentage of weeds killed was not less than 80%)
- herbicidal activity rating, SA (Sinapis arvensis) [7]: 5 (percentage of weeds killed was not less than 80%)
- herbicidal activity rating, VH (Veronica hederaefolia) [8]: 5 (percentage of weeds killed was not less than 80%)
- herbicidal activity rating, CA (Convolvulus arvensis) [9]: 4 (percentage of weeds killed was not less than 60% and less than 80%)
- herbicidal activity rating, CO (Cassia obtusifolia) [10]: 5 (percentage of weeds killed was not less than 80%)
- herbicidal activity rating, GA (Galium aparine) [11]: 5 (percentage of weeds killed was not less than 80%)

SMILES: CCCONC(=O)c1cc(OC)cc(Oc2cccc(C(F)(F)F)c2)n1 [Compound I-99, N-(n-propoxy)-4-methoxy-6-{3-(trifluoromethyl)phenoxy}-2-pyridine carboxamide]
- herbicidal activity rating, SM (Stellaria media) [1]: 5 (percentage of weeds killed was not less than 80%)
- herbicidal activity rating, MC (Matricaria chamomilla) [2]: 4 (percentage of weeds killed was not less than 60% and less than 80%)
- herbicidal activity rating, AT (Abutilon theophrasti) [3]: 5 (percentage of weeds killed was not less than 80%)
- herbicidal activity rating, AR (Amaranthus retroflexus) [4]: 5 (percentage of weeds killed was not less than 80%)
- herbicidal activity rating, SN (Solanum nigrum) [5]: 5 (percentage of weeds killed was not less than 80%)
- herbicidal activity rating, BP (Bidens pilosa) [6]: 5 (percentage of weeds killed was not less than 80%)
- herbicidal activity rating, SA (Sinapis arvensis) [7]: 5 (percentage of weeds killed was not less than 80%)
- herbicidal activity rating, VH (Veronica hederaefolia) [8]: 5 (percentage of weeds killed was not less than 80%)
- herbicidal activity rating, CA (Convolvulus arvensis) [9]: 5 (percentage of weeds killed was not less than 80%)
- herbicidal activity rating, CO (Cassia obtusifolia) [10]: 5 (percentage of weeds killed was not less than 80%)
- herbicidal activity rating, GA (Galium aparine) [11]: 5 (percentage of weeds killed was not less than 80%)

SMILES: CCCCCNC(=O)c1cc(OC)cc(Oc2cccc(C(F)(F)F)c2)n1 [Compound I-52]
- herbicidal activity rating, SM (Stellaria media) [1]: 5 (percentage of weeds killed was not less than 80%)
- herbicidal activity rating, MC (Matricaria chamomilla) [2]: 3 (percentage of weeds killed was not less than 40% and less than 60%)
- herbicidal activity rating, AT (Abutilon theophrasti) [3]: 4 (percentage of weeds killed was not less than 60% and less than 80%)
- herbicidal activity rating, AR (Amaranthus retroflexus) [4]: 5 (percentage of weeds killed was not less than 80%)
- herbicidal activity rating, SN (Solanum nigrum) [5]: 5 (percentage of weeds killed was not less than 80%)
- herbicidal activity rating, BP (Bidens pilosa) [6]: 3 (percentage of weeds killed was not less than 40% and less than 60%)
- herbicidal activity rating, SA (Sinapis arvensis) [7]: 5 (percentage of weeds killed was not less than 80%)
- herbicidal activity rating, VH (Veronica hederaefolia) [8]: 5 (percentage of weeds killed was not less than 80%)
- herbicidal activity rating, CA (Convolvulus arvensis) [9]: 5 (percentage of weeds killed was not less than 80%)
- herbicidal activity rating, CO (Cassia obtusifolia) [10]: 4 (percentage of weeds killed was not less than 60% and less than 80%)
- herbicidal activity rating, GA (Galium aparine) [11]: 5 (percentage of weeds killed was not less than 80%)

SMILES: C=CCNC(=O)c1cc(OC)cc(Oc2cccc(C(F)(F)F)c2)n1 [Compound I-42]
- herbicidal activity rating, SM (Stellaria media) [1]: 5 (percentage of weeds killed was not less than 80%)
- herbicidal activity rating, MC (Matricaria chamomilla) [2]: 4 (percentage of weeds killed was not less than 60% and less than 80%)
- herbicidal activity rating, AT (Abutilon theophrasti) [3]: 4 (percentage of weeds killed was not less than 60% and less than 80%)
- herbicidal activity rating, AR (Amaranthus retroflexus) [4]: 5 (percentage of weeds killed was not less than 80%)
- herbicidal activity rating, SN (Solanum nigrum) [5]: 5 (percentage of weeds killed was not less than 80%)
- herbicidal activity rating, BP (Bidens pilosa) [6]: 3 (percentage of weeds killed was not less than 40% and less than 60%)
- herbicidal activity rating, SA (Sinapis arvensis) [7]: 5 (percentage of weeds killed was not less than 80%)
- herbicidal activity rating, VH (Veronica hederaefolia) [8]: 5 (percentage of weeds killed was not less than 80%)
- herbicidal activity rating, CA (Convolvulus arvensis) [9]: 4 (percentage of weeds killed was not less than 60% and less than 80%)
- herbicidal activity rating, CO (Cassia obtusifolia) [10]: 5 (percentage of weeds killed was not less than 80%)
- herbicidal activity rating, GA (Galium aparine) [11]: 5 (percentage of weeds killed was not less than 80%)

SMILES: CCCNC(=S)c1cc(OC)cc(Oc2cccc(C(F)(F)F)c2)n1 [Compound I-34, N-(n-propyl)-4-methoxy-6-{3-(trifluoromethyl)phenoxy}-2-pyridine thiocarboxamide]
- herbicidal activity rating, SM (Stellaria media) [1]: 5 (percentage of weeds killed was not less than 80%)
- herbicidal activity rating, MC (Matricaria chamomilla) [2]: 5 (percentage of weeds killed was not less than 80%)
- herbicidal activity rating, AT (Abutilon theophrasti) [3]: 5 (percentage of weeds killed was not less than 80%)
- herbicidal activity rating, AR (Amaranthus retroflexus) [4]: 5 (percentage of weeds killed was not less than 80%)
- herbicidal activity rating, SN (Solanum nigrum) [5]: 5 (percentage of weeds killed was not less than 80%)
- herbicidal activity rating, BP (Bidens pilosa) [6]: 5 (percentage of weeds killed was not less than 80%)
- herbicidal activity rating, SA (Sinapis arvensis) [7]: 5 (percentage of weeds killed was not less than 80%)
- herbicidal activity rating, VH (Veronica hederaefolia) [8]: 5 (percentage of weeds killed was not less than 80%)
- herbicidal activity rating, CA (Convolvulus arvensis) [9]: 4 (percentage of weeds killed was not less than 60% and less than 80%)
- herbicidal activity rating, CO (Cassia obtusifolia) [10]: 5 (percentage of weeds killed was not less than 80%)
- herbicidal activity rating, GA (Galium aparine) [11]: 5 (percentage of weeds killed was not less than 80%)

SMILES: COc1cc(Oc2cccc(C(F)(F)F)c2)nc(C(N)=O)c1 [Compound I-123, 4-methoxy-6-{3-(trifluoromethyl)phenoxy}-2-pyridine carboxamide]
- herbicidal activity rating, SM (Stellaria media) [1]: 5 (percentage of weeds killed was not less than 80%)
- herbicidal activity rating, MC (Matricaria chamomilla) [2]: 1 (percentage of weeds killed was less than 20%)
- herbicidal activity rating, AT (Abutilon theophrasti) [3]: 3 (percentage of weeds killed was not less than 40% and less than 60%)
- herbicidal activity rating, AR (Amaranthus retroflexus) [4]: 5 (percentage of weeds killed was not less than 80%)
- herbicidal activity rating, SN (Solanum nigrum) [5]: 5 (percentage of weeds killed was not less than 80%)
- herbicidal activity rating, BP (Bidens pilosa) [6]: 2 (percentage of weeds killed was not less than 20% and less than 40%)
- herbicidal activity rating, SA (Sinapis arvensis) [7]: 5 (percentage of weeds killed was not less than 80%)
- herbicidal activity rating, VH (Veronica hederaefolia) [8]: 5 (percentage of weeds killed was not less than 80%)
- herbicidal activity rating, CA (Convolvulus arvensis) [9]: 4 (percentage of weeds killed was not less than 60% and less than 80%)
- herbicidal activity rating, CO (Cassia obtusifolia) [10]: 2 (percentage of weeds killed was not less than 20% and less than 40%)
- herbicidal activity rating, GA (Galium aparine) [11]: 5 (percentage of weeds killed was not less than 80%)

SMILES: COc1cc(Oc2cccc(C(F)(F)F)c2)nc(C(=O)NNC(C)(C)C)c1 [Compound I-126]
- herbicidal activity rating, SM (Stellaria media) [1]: 5 (percentage of weeds killed was not less than 80%)
- herbicidal activity rating, MC (Matricaria chamomilla) [2]: 4 (percentage of weeds killed was not less than 60% and less than 80%)
- herbicidal activity rating, AT (Abutilon theophrasti) [3]: 5 (percentage of weeds killed was not less than 80%)
- herbicidal activity rating, AR (Amaranthus retroflexus) [4]: 5 (percentage of weeds killed was not less than 80%)
- herbicidal activity rating, SN (Solanum nigrum) [5]: 5 (percentage of weeds killed was not less than 80%)
- herbicidal activity rating, BP (Bidens pilosa) [6]: 5 (percentage of weeds killed was not less than 80%)
- herbicidal activity rating, SA (Sinapis arvensis) [7]: 5 (percentage of weeds killed was not less than 80%)
- herbicidal activity rating, VH (Veronica hederaefolia) [8]: 5 (percentage of weeds killed was not less than 80%)
- herbicidal activity rating, CA (Convolvulus arvensis) [9]: 4 (percentage of weeds killed was not less than 60% and less than 80%)
- herbicidal activity rating, CO (Cassia obtusifolia) [10]: 5 (percentage of weeds killed was not less than 80%)
- herbicidal activity rating, GA (Galium aparine) [11]: 5 (percentage of weeds killed was not less than 80%)

SMILES: CNc1cc(Oc2cccc(C(F)(F)F)c2)nc(C(=O)NC(C)C)c1 [Compound I-56, N-(i-propyl)-4-methylamino-6-{3-(trifluoromethyl)phenoxy}-2-pyridine carboxamide]
- herbicidal activity rating, SM (Stellaria media) [1]: 4 (percentage of weeds killed was not less than 60% and less than 80%)
- herbicidal activity rating, MC (Matricaria chamomilla) [2]: 4 (percentage of weeds killed was not less than 60% and less than 80%)
- herbicidal activity rating, AT (Abutilon theophrasti) [3]: 5 (percentage of weeds killed was not less than 80%)
- herbicidal activity rating, AR (Amaranthus retroflexus) [4]: 5 (percentage of weeds killed was not less than 80%)
- herbicidal activity rating, SN (Solanum nigrum) [5]: 5 (percentage of weeds killed was not less than 80%)
- herbicidal activity rating, BP (Bidens pilosa) [6]: 4 (percentage of weeds killed was not less than 60% and less than 80%)
- herbicidal activity rating, SA (Sinapis arvensis) [7]: 5 (percentage of weeds killed was not less than 80%)
- herbicidal activity rating, VH (Veronica hederaefolia) [8]: 5 (percentage of weeds killed was not less than 80%)
- herbicidal activity rating, CA (Convolvulus arvensis) [9]: 5 (percentage of weeds killed was not less than 80%)
- herbicidal activity rating, CO (Cassia obtusifolia) [10]: 4 (percentage of weeds killed was not less than 60% and less than 80%)
- herbicidal activity rating, GA (Galium aparine) [11]: 5 (percentage of weeds killed was not less than 80%)
